{"source": "patent US9737535B2", "about": "“Methods for treating cancer using TOR kinase inhibitor combination therapy comprising administering substituted pyrazino[2,3-b]pyrazines” (Signal Pharmaceuticals, LLC, priority 2014, dated 2017)"}
{"system": "BT-20", "test": "Anti-proliferation assay (ATPLite), Chalice synergy score", "format": "cell-based", "design": "scale not given here", "conditions": "Compound 1 in combination with the named second active agent, 72 h, mean of n = 3 experiments in triplicate", "source_text": "(§1) Cells were thawed from a liquid nitrogen preserved state.\n(§2) The calculation for synergy score is provided below.\n(§3) If T≧V0:100*[1−(T−V0)/(V−V0)]"}
{"smiles": "C=CCn1c(=O)c2cnc(Nc3ccc(N4CCN(C)CC4)cc3)nc2n1-c1cccc(C(C)(C)O)n1", "note": "[MK1775]", "Synergy score": 5.01}
{"smiles": "NC(=O)Nc1cc(-c2cccc(F)c2)sc1C(=O)N[C@H]1CCCNC1", "note": "[AZD7762]", "Synergy score": 3.92}
{"smiles": "O=C(Nc1cc(C(F)(F)F)cc(C(F)(F)F)c1)c1cc(Cl)ccc1O", "note": "[IMD-0354]", "Synergy score": 1.85}
{"system": "HCC-1187", "test": "Anti-proliferation assay (ATPLite), Chalice synergy score", "format": "cell-based", "design": "scale not given here", "conditions": "Compound 1 in combination with the named second active agent, 72 h, mean of n = 3 experiments in triplicate", "source_text": "as §1, §2, §3"}
{"smiles": "C=CCn1c(=O)c2cnc(Nc3ccc(N4CCN(C)CC4)cc3)nc2n1-c1cccc(C(C)(C)O)n1", "note": "[MK1775]", "Synergy score": 1.30}
{"smiles": "NC(=O)Nc1cc(-c2cccc(F)c2)sc1C(=O)N[C@H]1CCCNC1", "note": "[AZD7762]", "Synergy score": 1.65}
{"smiles": "O=C(Nc1cc(C(F)(F)F)cc(C(F)(F)F)c1)c1cc(Cl)ccc1O", "note": "[IMD-0354]", "Synergy score": 1.86}
{"system": "HCC-1500", "test": "Anti-proliferation assay (ATPLite), Chalice synergy score", "format": "cell-based", "design": "scale not given here", "conditions": "Compound 1 in combination with the named second active agent, 72 h, mean of n = 3 experiments in triplicate", "source_text": "as §1, §2, §3"}
{"smiles": "C=CCn1c(=O)c2cnc(Nc3ccc(N4CCN(C)CC4)cc3)nc2n1-c1cccc(C(C)(C)O)n1", "note": "[MK1775]", "Synergy score": 2.46}
{"smiles": "NC(=O)Nc1cc(-c2cccc(F)c2)sc1C(=O)N[C@H]1CCCNC1", "note": "[AZD7762]", "Synergy score": 3.02}
{"smiles": "O=C(Nc1cc(C(F)(F)F)cc(C(F)(F)F)c1)c1cc(Cl)ccc1O", "note": "[IMD-0354]", "Synergy score": 1.42}
{"system": "MDA-MB-231", "test": "Anti-proliferation assay (ATPLite), Chalice synergy score", "format": "cell-based", "conditions": "Compound 1 in combination with second active agent, mean self-cross + 2σ threshold 2.61", "source_text": "as §1, §2, §3"}
{"smiles": "C=CCn1c(=O)c2cnc(Nc3ccc(N4CCN(C)CC4)cc3)nc2n1-c1cccc(C(C)(C)O)n1", "note": "[MK1775]", "Synergy score": 2.31}
{"smiles": "NC(=O)Nc1cc(-c2cccc(F)c2)sc1C(=O)N[C@H]1CCCNC1", "note": "[AZD7762]", "Synergy score": 3.66}
{"smiles": "O=C(Nc1cc(C(F)(F)F)cc(C(F)(F)F)c1)c1cc(Cl)ccc1O", "note": "[IMD-0354]", "Synergy score": 6.14}
{"system": "BT-549", "test": "Anti-proliferation assay (ATPLite), Chalice synergy score", "format": "cell-based", "conditions": "Compound 1 in combination with the named second active agent, 72 h, mean of n = 3 experiments in triplicate", "source_text": "as §1, §2, §3"}
{"smiles": "C=CCn1c(=O)c2cnc(Nc3ccc(N4CCN(C)CC4)cc3)nc2n1-c1cccc(C(C)(C)O)n1", "note": "[MK1775]", "Synergy score": 2.99}
{"smiles": "NC(=O)Nc1cc(-c2cccc(F)c2)sc1C(=O)N[C@H]1CCCNC1", "note": "[AZD7762]", "Synergy score": 0.39}
{"smiles": "O=C(Nc1cc(C(F)(F)F)cc(C(F)(F)F)c1)c1cc(Cl)ccc1O", "note": "[IMD-0354]", "Synergy score": 2.68}
{"system": "MCF7", "test": "Anti-proliferation assay (ATPLite), Chalice synergy score", "format": "cell-based", "conditions": "Compound 1 in combination with second active agent, mean self-cross + 2σ threshold 3.07", "source_text": "as §1, §2, §3"}
{"smiles": "C=CCn1c(=O)c2cnc(Nc3ccc(N4CCN(C)CC4)cc3)nc2n1-c1cccc(C(C)(C)O)n1", "note": "[MK1775]", "Synergy score": 5.76}
{"smiles": "NC(=O)Nc1cc(-c2cccc(F)c2)sc1C(=O)N[C@H]1CCCNC1", "note": "[AZD7762]", "Synergy score": 0.08}
{"smiles": "O=C(Nc1cc(C(F)(F)F)cc(C(F)(F)F)c1)c1cc(Cl)ccc1O", "note": "[IMD-0354]", "Synergy score": 2.88}
{"system": "MDA-MB-157", "test": "Anti-proliferation assay (ATPLite), Chalice synergy score", "format": "cell-based", "conditions": "Compound 1 in combination with second active agent, mean self-cross + 2σ threshold 4.68", "source_text": "as §1, §2, §3"}
{"smiles": "C=CCn1c(=O)c2cnc(Nc3ccc(N4CCN(C)CC4)cc3)nc2n1-c1cccc(C(C)(C)O)n1", "note": "[MK1775]", "Synergy score": 2.68}
{"smiles": "NC(=O)Nc1cc(-c2cccc(F)c2)sc1C(=O)N[C@H]1CCCNC1", "note": "[AZD7762]", "Synergy score": 3.09}
{"smiles": "O=C(Nc1cc(C(F)(F)F)cc(C(F)(F)F)c1)c1cc(Cl)ccc1O", "note": "[IMD-0354]", "Synergy score": 4.80}
{"system": "BT-474", "test": "Anti-proliferation assay (ATPLite), Chalice synergy score", "format": "cell-based", "conditions": "Compound 1 in combination with the named second active agent, 72 h, mean of n = 3 experiments in triplicate", "source_text": "as §1, §2, §3"}
{"smiles": "C=CCn1c(=O)c2cnc(Nc3ccc(N4CCN(C)CC4)cc3)nc2n1-c1cccc(C(C)(C)O)n1", "note": "[MK1775]", "Synergy score": 9.61}
{"smiles": "NC(=O)Nc1cc(-c2cccc(F)c2)sc1C(=O)N[C@H]1CCCNC1", "note": "[AZD7762]", "Synergy score": 1.21}
{"smiles": "O=C(Nc1cc(C(F)(F)F)cc(C(F)(F)F)c1)c1cc(Cl)ccc1O", "note": "[IMD-0354]", "Synergy score": 1.77}
{"system": "Hs-578-T", "test": "Anti-proliferation assay (ATPLite), Chalice synergy score", "format": "cell-based", "conditions": "Compound 1 in combination with second active agent, mean self-cross + 2σ threshold 4.09", "source_text": "as §1, §2, §3"}
{"smiles": "C=CCn1c(=O)c2cnc(Nc3ccc(N4CCN(C)CC4)cc3)nc2n1-c1cccc(C(C)(C)O)n1", "note": "[MK1775]", "Synergy score": 9.02}
{"smiles": "NC(=O)Nc1cc(-c2cccc(F)c2)sc1C(=O)N[C@H]1CCCNC1", "note": "[AZD7762]", "Synergy score": 8.16}
{"smiles": "O=C(Nc1cc(C(F)(F)F)cc(C(F)(F)F)c1)c1cc(Cl)ccc1O", "note": "[IMD-0354]", "Synergy score": 3.35}
{"system": "HCC-1937", "test": "Anti-proliferation assay (ATPLite), Chalice synergy score", "format": "cell-based", "conditions": "Compound 1 in combination with the named second active agent, 72 h, mean of n = 3 experiments in triplicate", "source_text": "as §1, §2, §3"}
{"smiles": "C=CCn1c(=O)c2cnc(Nc3ccc(N4CCN(C)CC4)cc3)nc2n1-c1cccc(C(C)(C)O)n1", "note": "[MK1775]", "Synergy score": 7.93}
{"smiles": "NC(=O)Nc1cc(-c2cccc(F)c2)sc1C(=O)N[C@H]1CCCNC1", "note": "[AZD7762]", "Synergy score": 4.44}
{"smiles": "O=C(Nc1cc(C(F)(F)F)cc(C(F)(F)F)c1)c1cc(Cl)ccc1O", "note": "[IMD-0354]", "Synergy score": 6.42}
{"system": "HCC-1806", "test": "Anti-proliferation assay (ATPLite), Chalice synergy score", "format": "cell-based", "conditions": "Compound 1 in combination with the named second active agent, 72 h, mean of n = 3 experiments in triplicate", "source_text": "as §1, §2, §3"}
{"smiles": "C=CCn1c(=O)c2cnc(Nc3ccc(N4CCN(C)CC4)cc3)nc2n1-c1cccc(C(C)(C)O)n1", "note": "[MK1775]", "Synergy score": 0.55}
{"smiles": "NC(=O)Nc1cc(-c2cccc(F)c2)sc1C(=O)N[C@H]1CCCNC1", "note": "[AZD7762]", "Synergy score": 0.32}
{"smiles": "O=C(Nc1cc(C(F)(F)F)cc(C(F)(F)F)c1)c1cc(Cl)ccc1O", "note": "[IMD-0354]", "Synergy score": 7.45}
{"system": "HCC70", "test": "Anti-proliferation assay (ATPLite), Chalice synergy score", "format": "cell-based", "conditions": "Compound 1 in combination with second active agent; HCC-70; mean self-cross + 2σ threshold 3.45", "source_text": "as §1, §2, §3"}
{"smiles": "C=CCn1c(=O)c2cnc(Nc3ccc(N4CCN(C)CC4)cc3)nc2n1-c1cccc(C(C)(C)O)n1", "note": "[MK1775]", "Synergy score": 12.10}
{"smiles": "NC(=O)Nc1cc(-c2cccc(F)c2)sc1C(=O)N[C@H]1CCCNC1", "note": "[AZD7762]", "Synergy score": 4.61}
{"smiles": "O=C(Nc1cc(C(F)(F)F)cc(C(F)(F)F)c1)c1cc(Cl)ccc1O", "note": "[IMD-0354]", "Synergy score": 0.88}
{"system": "HCC-1428", "test": "Anti-proliferation assay (ATPLite), Chalice synergy score", "format": "cell-based", "conditions": "Compound 1 in combination with the named second active agent, 72 h, mean of n = 3 experiments in triplicate", "source_text": "as §1, §2, §3"}
{"smiles": "C=CCn1c(=O)c2cnc(Nc3ccc(N4CCN(C)CC4)cc3)nc2n1-c1cccc(C(C)(C)O)n1", "note": "[MK1775]", "Synergy score": 3.25}
{"smiles": "NC(=O)Nc1cc(-c2cccc(F)c2)sc1C(=O)N[C@H]1CCCNC1", "note": "[AZD7762]", "Synergy score": 2.58}
{"smiles": "O=C(Nc1cc(C(F)(F)F)cc(C(F)(F)F)c1)c1cc(Cl)ccc1O", "note": "[IMD-0354]", "Synergy score": 0.51}
{"system": "MDA-MB-436", "test": "Anti-proliferation assay (ATPLite), Chalice synergy score", "format": "cell-based", "conditions": "Compound 1 in combination with second active agent, mean self-cross + 2σ threshold 1.91", "source_text": "as §1, §2, §3"}
{"smiles": "C=CCn1c(=O)c2cnc(Nc3ccc(N4CCN(C)CC4)cc3)nc2n1-c1cccc(C(C)(C)O)n1", "note": "[MK1775]", "Synergy score": 1.45}
{"smiles": "NC(=O)Nc1cc(-c2cccc(F)c2)sc1C(=O)N[C@H]1CCCNC1", "note": "[AZD7762]", "Synergy score": 0.93}
{"smiles": "O=C(Nc1cc(C(F)(F)F)cc(C(F)(F)F)c1)c1cc(Cl)ccc1O", "note": "[IMD-0354]", "Synergy score": 3.94}
{"system": "MDA-MB-468", "test": "Anti-proliferation assay (ATPLite), Chalice synergy score", "format": "cell-based", "conditions": "Compound 1 in combination with second active agent, mean self-cross + 2σ threshold 4.66", "source_text": "as §1, §2, §3"}
{"smiles": "C=CCn1c(=O)c2cnc(Nc3ccc(N4CCN(C)CC4)cc3)nc2n1-c1cccc(C(C)(C)O)n1", "note": "[MK1775]", "Synergy score": 7.69}
{"smiles": "NC(=O)Nc1cc(-c2cccc(F)c2)sc1C(=O)N[C@H]1CCCNC1", "note": "[AZD7762]", "Synergy score": 0.94}
{"smiles": "O=C(Nc1cc(C(F)(F)F)cc(C(F)(F)F)c1)c1cc(Cl)ccc1O", "note": "[IMD-0354]", "Synergy score": 3.80}
